# Measurements as given in article PMC11597089, “Kratom Alkaloids: A Blood–Brain Barrier Specific Membrane Permeability Assay-Guided Isolation and Cyclodextrin Complexation Study” (Molecules, 2024).
# Assay: ACE complex stability, α-CD
# Format: physicochemical
# Settings: 30 mM phosphate buffer pH 7.4, 25 °C, 15 kV, 215 nm
# Experimental: (§1) To investigate the CD complexation behavior of the four kratom alkaloids, we aimed to develop an ACE method for a systematic comparative study. […] To ensure sufficient buffer capacity and to avoid excessive current and Joule heat generation, the buffer concentration was set to 30 mM, and the applied voltage was 15 kV.
# (§2) The ACE experiments were performed by using Agilent 7100 and HP^3DCE instruments (Agilent Technologies, Waldbronn, Germany). Untreated fused silica capillaries (total length of 48.5 cm, effective length of 40 cm, inner diameter of 50 μm) were purchased from Agilent Technologies. The new capillaries were conditioned with a 1 M NaOH wash for 1 h, followed by a 30 min wash each with 0.1 M NaOH and purified water. Prior to all runs, the capillary was preconditioned by rinsing with background electrolyte for 3 min. During the measurements, 30 mM phosphate buffer at pH 7.4 (30 mM Na2HPO4-NaOH) was used. The background electrolyte contained CDs at various concentrations. Stock solutions of the studied kratom alkaloids (mitragynine, paynantheine, speciogynine, speciociliatine) were prepared separately in methanol (1 mg/mL), and, right before the measurements, appropriate dilutions with purified water were used to prepare the sample solutions, applying 0.1% DMSO as the electroosmotic flow (EOF) marker. The samples were injected hydrodynamically at 40 mbar for 3 s. The positive polarity voltage was set to 15 kV, and the capillary was set to 25 °C. The electropherograms were recorded at four wavelengths (200 nm, 210 nm, 215 nm, and 220 nm), and the data were evaluated at 215 nm. In each case, three parallel measurements were performed. The measurements were evaluated using Origin and CEval software (v. 0.6i3).
# (§3) In order to determine the complex stability constants that characterized the strength of the complexes, the first step was to determine the effective mobility of the analyte at specific CD concentrations. Triangular peaks caused by electromigration dispersion are often observed in ACE measurements.
# (§4) Assuming a 1:1 complexation ratio and that the equilibrium CD concentration is almost equal to the total CD concentration, a relationship between the effective mobility relative to the EOF and the complex stability constant can be described by Function (4) (4) μeff=μA+μACDKstabCD/1+KstabCD where µeff is the effective mobility of the analyte, µA and µACD are the free and complexed analyte mobilities, [CD] is the concentration of the selector, and Kstab is the complex stability constant.
# (§5) In order to calculate the exact, apparent, averaged complex stability constant values, viscosity correction and ionic strength correction were used.
row,Molecule,complex stability constant (Kstab) with α-CD
1,"CC[C@H]1CN2CCc3c([nH]c4cccc(OC)c34)[C@@H]2C[C@@H]1/C(=C\OC)C(=O)OC [Speciogynine, speciogynine]",23 ± 5 M⁻¹
2,mitragynine,25 ± 2 M⁻¹

# Assay: ACE complex stability, γ-CD
# Format: physicochemical
# Settings: 30 mM phosphate buffer pH 7.4, 25 °C, 15 kV, 215 nm
# Experimental: as §1, §2, §3, §4, §5
row,Molecule,complex stability constant (Kstab) with γ-CD
1,"CC[C@H]1CN2CCc3c([nH]c4cccc(OC)c34)[C@@H]2C[C@@H]1/C(=C\OC)C(=O)OC [Speciogynine, speciogynine]",45 ± 4 M⁻¹
2,mitragynine,55 ± 5 M⁻¹

# Assay: ACE complex stability, DIME-β-CD
# Format: physicochemical
# Settings: dimethylated-β-CD DS~14, 30 mM phosphate buffer pH 7.4, 25 °C
# Experimental: as §1, §2
# as §3, with “measurements. […]” for “measurements.”
row,Molecule,complex stability constant (Kstab) with DIME-β-CD
1,mitragynine,150 ± 15 M⁻¹

# Assay: ACE complex stability, RAME-β-CD
# Format: physicochemical
# Settings: randomly methylated-β-CD DS~12, 30 mM phosphate buffer pH 7.4, 25 °C
# Experimental: as §1, §2, §3, §4, §5
row,Molecule,complex stability constant (Kstab) with RAME-β-CD
1,"CC[C@H]1CN2CCc3c([nH]c4cccc(OC)c34)[C@@H]2C[C@@H]1/C(=C\OC)C(=O)OC [Speciogynine, speciogynine]",40 ± 1 M⁻¹
2,mitragynine,95 ± 9 M⁻¹

# Assay: ACE complex stability, HP-γ-CD
# Format: physicochemical
# Settings: hydroxypropylated-γ-CD DS~3, 30 mM phosphate buffer pH 7.4, 25 °C
# Experimental: as §1, §2
# as §3, with “measurements. […]” for “measurements.”
row,Molecule,complex stability constant (Kstab) with HP-γ-CD
1,mitragynine,230 ± 35 M⁻¹

# Assay: ACE complex stability, CM-α-CD
# Format: physicochemical
# Settings: carboxymethylated-α-CD DS~3.5, 30 mM phosphate buffer pH 7.4, 25 °C
# Experimental: as §1, §2
# as §3, with “measurements. […]” for “measurements.”
row,Molecule,complex stability constant (Kstab) with CM-α-CD
1,"CC[C@H]1CN2CCc3c([nH]c4cccc(OC)c34)[C@@H]2C[C@@H]1/C(=C\OC)C(=O)OC [Speciogynine, speciogynine]",135 ± 12 M⁻¹
2,mitragynine,155 ± 15 M⁻¹

# Assay: ACE complex stability, CM-β-CD
# Format: physicochemical
# Settings: carboxymethylated-β-CD DS~3, 30 mM phosphate buffer pH 7.4, 25 °C
# Experimental: as §1, §2, §3, §4, §5
row,Molecule,complex stability constant (Kstab) with CM-β-CD
1,"CC[C@H]1CN2CCc3c([nH]c4cccc(OC)c34)[C@@H]2C[C@@H]1/C(=C\OC)C(=O)OC [Speciogynine, speciogynine]",170 ± 15 M⁻¹
2,mitragynine,215 ± 20 M⁻¹

# Assay: ACE complex stability, CM-γ-CD
# Format: physicochemical
# Settings: carboxymethylated-γ-CD DS~4, 30 mM phosphate buffer pH 7.4, 25 °C
# Experimental: as §1, §2, §3, §4, §5
row,Molecule,complex stability constant (Kstab) with CM-γ-CD
1,"CC[C@H]1CN2CCc3c([nH]c4cccc(OC)c34)[C@@H]2C[C@@H]1/C(=C\OC)C(=O)OC [Speciogynine, speciogynine]",140 ± 12 M⁻¹
2,mitragynine,200 ± 10 M⁻¹

# Assay: ACE complex stability, CE-β-CD
# Format: physicochemical
# Settings: carboxyethylated-β-CD DS~3, 30 mM phosphate buffer pH 7.4, 25 °C
# Experimental: as §1, §2, §3, §4, §5
row,Molecule,complex stability constant (Kstab) with CE-β-CD
1,"CC[C@H]1CN2CCc3c([nH]c4cccc(OC)c34)[C@@H]2C[C@@H]1/C(=C\OC)C(=O)OC [Speciogynine, speciogynine]",375 ± 25 M⁻¹
2,mitragynine,210 ± 20 M⁻¹

# Assay: ACE complex stability, Sualfadex
# Format: physicochemical
# Settings: hexakis-(6-deoxy-6-(2-carboxyethyl)thio)-α-CD, 30 mM phosphate buffer pH 7.4, 25 °C
# Experimental: as §1, §2, §3, §4, §5
row,Molecule,complex stability constant (Kstab) with Sualfadex
1,"CC[C@H]1CN2CCc3c([nH]c4cccc(OC)c34)[C@@H]2C[C@@H]1/C(=C\OC)C(=O)OC [Speciogynine, speciogynine]",75 ± 20 M⁻¹
2,mitragynine,200 ± 25 M⁻¹

# Assay: ACE complex stability, Succ-β-CD
# Format: physicochemical
# Settings: succinyl-β-CD DS~6, 30 mM phosphate buffer pH 7.4, 25 °C
# Experimental: as §1, §2, §3, §4, §5
row,Molecule,complex stability constant (Kstab) with Succ-β-CD
1,"CC[C@H]1CN2CCc3c([nH]c4cccc(OC)c34)[C@@H]2C[C@@H]1/C(=C\OC)C(=O)OC [Speciogynine, speciogynine]",840 ± 80 M⁻¹
2,mitragynine,375 ± 20 M⁻¹

# Assay: ACE complex stability, Phos-β-CD
# Format: physicochemical
# Settings: phosphated-β-CD DS~2-6, 30 mM phosphate buffer pH 7.4, 25 °C
# Experimental: as §1, §2, §3, §4, §5
row,Molecule,complex stability constant (Kstab) with Phos-β-CD
1,"CC[C@H]1CN2CCc3c([nH]c4cccc(OC)c34)[C@@H]2C[C@@H]1/C(=C\OC)C(=O)OC [Speciogynine, speciogynine]",420 ± 30 M⁻¹
2,mitragynine,290 ± 30 M⁻¹

# Assay: ACE complex stability, SBE-β-CD DS~4
# Format: physicochemical
# Settings: sulfobutyl-ether-β-CD DS~4, 30 mM phosphate buffer pH 7.4, 25 °C
# Experimental: as §1, §2, §3, §4, §5
row,Molecule,complex stability constant (Kstab) with SBE-β-CD DS~4
1,"CC[C@H]1CN2CCc3c([nH]c4cccc(OC)c34)[C@@H]2C[C@@H]1/C(=C\OC)C(=O)OC [Speciogynine, speciogynine]",610 ± 60 M⁻¹
2,mitragynine,550 ± 35 M⁻¹

# Assay: ACE complex stability, HxDMS-α-CD
# Format: physicochemical
# Settings: hexakis-(2,3-O-dimethyl, 6-O-sulfo)-α-CD, 30 mM phosphate buffer pH 7.4, 25 °C
# Experimental: as §1, §2, §3, §4, §5
row,Molecule,complex stability constant (Kstab) with HxDMS-α-CD
1,"CC[C@H]1CN2CCc3c([nH]c4cccc(OC)c34)[C@@H]2C[C@@H]1/C(=C\OC)C(=O)OC [Speciogynine, speciogynine]",40 ± 4 M⁻¹
2,mitragynine,50 ± 10 M⁻¹

# Assay: ACE complex stability, HDMS-β-CD
# Format: physicochemical
# Settings: heptakis-(2,3-O-dimethyl, 6-O-sulfo)-β-CD, 30 mM phosphate buffer pH 7.4, 25 °C
# Experimental: as §1, §2, §3, §4, §5
row,Molecule,complex stability constant (Kstab) with HDMS-β-CD
1,"CC[C@H]1CN2CCc3c([nH]c4cccc(OC)c34)[C@@H]2C[C@@H]1/C(=C\OC)C(=O)OC [Speciogynine, speciogynine]",30 ± 3 M⁻¹
2,mitragynine,175 ± 7 M⁻¹

# Assay: ACE complex stability, ODMS-γ-CD
# Format: physicochemical
# Settings: octakis-(2,3-O-dimethyl, 6-O-sulfo)-γ-CD, 30 mM phosphate buffer pH 7.4, 25 °C
# Experimental: as §1, §2, §3, §4, §5
row,Molecule,complex stability constant (Kstab) with ODMS-γ-CD
1,"CC[C@H]1CN2CCc3c([nH]c4cccc(OC)c34)[C@@H]2C[C@@H]1/C(=C\OC)C(=O)OC [Speciogynine, speciogynine]",250 ± 15 M⁻¹
2,mitragynine,80 ± 7 M⁻¹

# Assay: ACE complex stability, HMDiSu-β-CD
# Format: physicochemical
# Settings: heptakis-(2-O-methyl, 3,6-O-disulfo)-β-CD, 30 mM phosphate buffer pH 7.4, 25 °C
# Experimental: as §1, §2, §3, §4, §5
row,Molecule,complex stability constant (Kstab) with HMDiSu-β-CD
1,"CC[C@H]1CN2CCc3c([nH]c4cccc(OC)c34)[C@@H]2C[C@@H]1/C(=C\OC)C(=O)OC [Speciogynine, speciogynine]",530 ± 10 M⁻¹
2,mitragynine,230 ± 25 M⁻¹

# Assay: ACE complex stability, MA-β-CD
# Format: physicochemical
# Settings: mono-(6-N-amino-6-deoxy)-β-CD, positively charged, 30 mM phosphate buffer pH 7.4, 25 °C
# Experimental: as §1, §2, §3, §4, §5
row,Molecule,complex stability constant (Kstab) with MA-β-CD
1,"CC[C@H]1CN2CCc3c([nH]c4cccc(OC)c34)[C@@H]2C[C@@H]1/C(=C\OC)C(=O)OC [Speciogynine, speciogynine]",< 10 M⁻¹
2,mitragynine,< 10 M⁻¹

# Assay: ACE complex stability, HPA-β-CD
# Format: physicochemical
# Settings: mono-6^A-(3-hydroxy)propylamino-β-CD, positively charged, 30 mM phosphate buffer pH 7.4, 25 °C
# Experimental: as §1, §2, §3, §4, §5
row,Molecule,complex stability constant (Kstab) with HPA-β-CD
1,"CC[C@H]1CN2CCc3c([nH]c4cccc(OC)c34)[C@@H]2C[C@@H]1/C(=C\OC)C(=O)OC [Speciogynine, speciogynine]",< 10 M⁻¹
2,mitragynine,< 10 M⁻¹

# Assay: ACE complex stability, PYR-β-CD
# Format: physicochemical
# Settings: 6-monodeoxy-6-pyrrolidine-β-CD, positively charged, 30 mM phosphate buffer pH 7.4, 25 °C
# Experimental: as §1, §2, §3, §4, §5
row,Molecule,complex stability constant (Kstab) with PYR-β-CD
1,"CC[C@H]1CN2CCc3c([nH]c4cccc(OC)c34)[C@@H]2C[C@@H]1/C(=C\OC)C(=O)OC [Speciogynine, speciogynine]",< 10 M⁻¹
2,mitragynine,< 10 M⁻¹

# Assay: ACE complex stability, PIP-β-CD
# Format: physicochemical
# Settings: 6-monodeoxy-6-piperidine-β-CD, positively charged, 30 mM phosphate buffer pH 7.4, 25 °C
# Experimental: as §1, §2, §3, §4, §5
row,Molecule,complex stability constant (Kstab) with PIP-β-CD
1,"CC[C@H]1CN2CCc3c([nH]c4cccc(OC)c34)[C@@H]2C[C@@H]1/C(=C\OC)C(=O)OC [Speciogynine, speciogynine]",< 10 M⁻¹
2,mitragynine,< 10 M⁻¹

# Assay: ACE complex stability, MePYR-β-CD
# Format: physicochemical
# Settings: mono-6^A-(N-methyl-pyrrolidine)-β-CD, positively charged, 30 mM phosphate buffer pH 7.4, 25 °C
# Experimental: as §1, §2, §3, §4, §5
row,Molecule,complex stability constant (Kstab) with MePYR-β-CD
1,"CC[C@H]1CN2CCc3c([nH]c4cccc(OC)c34)[C@@H]2C[C@@H]1/C(=C\OC)C(=O)OC [Speciogynine, speciogynine]",< 10 M⁻¹
2,mitragynine,< 10 M⁻¹

# Assay: ACE complex stability, MePIP-β-CD
# Format: physicochemical
# Settings: mono-6^A-(N-methyl-piperidine)-β-CD, positively charged, 30 mM phosphate buffer pH 7.4, 25 °C
# Experimental: as §1, §2, §3, §4, §5
row,Molecule,complex stability constant (Kstab) with MePIP-β-CD
1,"CC[C@H]1CN2CCc3c([nH]c4cccc(OC)c34)[C@@H]2C[C@@H]1/C(=C\OC)C(=O)OC [Speciogynine, speciogynine]",< 10 M⁻¹
2,mitragynine,< 10 M⁻¹
